According to patent publication EP0233461B2, “4,5,6-Substituted-2-pyrimidinamines” (AMERICAN CYANAMID COMPANY, priority 1986, dated 1987):
pIC50: −log10 of the molar value. Where a name gives a salt, the structure may show the parent alone.

These compounds were tested on human basophils (assay: Inhibition of histamine release from immunologically stimulated human basophils). Conditions: Homo sapiens, concentration causing 50% inhibition of histamine release, by linear regression; active if IC50 ≦ 48 µM.
Format: cell-based
Method: The blood is allowed to sediment at room temperature in two 50 ml polycarbonate centrifuge tubes until a sharp interface develops between the red cells and plasma (60-90 minutes). The plasma (top) layer from each tube is withdrawn by pipet and transferred to respective 50 ml polycarbonate tubes. The plasma is centrifuged for 8 minutes at 110X G at 4°C. The supernatant is carefully poured off as completely as possible and the cell button is resuspended in 2-3 ml of Tris-A buffer using a siliconized Pasteur pipet. The resuspension is accomplished by drawing the liquid gently in an out of the pipet, with the tip below the liquid until an even suspension of cells is obtained. Sufficient Tris-A buffer is then added to bring the volume in the tube to about 45 ml and the tube is centrifuged at 110X G for 8 minutes at 4°C. The supernatant is poured off and the cell button is resuspended and centrifuged as described above. The supernatant is poured off and the cell button is suspended in 2-3 ml of Tris-ACM buffer to make the final volume sufficient to allow addition to the reaction tubes. Reaction tubes containing anti-IgE or antigens, either alone or with test compound in a total volume of 0.2 ml are prepared and placed in a 37°C bath. The cells are warmed to 37°C and frequently swirled to ensure an even suspension, while 1.0 ml aliquots are added to each reaction tube. The tubes are then incubated for 60 minutes at 37°C, vortexing the tubes gently every 15 minutes to keep the cells evenly suspended. When the reaction is complete, the tubes are centrifuged at 4°C for 10 minutes at 1500 rpm to sediment the cells. […] Blanks and totals are included in each test. The blanks have cells and all reagents except antigen or anti-IgE. The totals contain 0.24 ml of 8% perchloric acid, one ml of cells and 0.2 ml of buffer. All samples are then centrifuged to remove the precipitate protein. […] The automated system consists of the following Technicon Autoanalyzer II components Sampler IV, Dual-Speed Proportioning Pump III, Fluoronephelometer with a narrow pass primary filter 7-60 and a secondary filter 3-74, Recorder, and Digital Printer. The manifold used is the one described by Siraganian vide supra, with the following modifications: the dialyzer is omitted; all pumping tubes pass through a single proportioning pump with large capacity and twice the volume of sample is taken for anaylsis. The automated chemistry consists of the following steps: Extraction from alkaline saline into butanol, back extraction into dilute hydrochloric acid by addition of heptane, reaction of histamine with o-phthaldialdehyde (OPT) at high pH and conversion of the OPT adduct to a stable fluorophore with phosphoric acid. The reaction product is then passed through the fluorometer. The full scale response is adjusted to 50 ng histamine base with a threshold sensitivity of approximately 0.5 ng. The instrument blank (wash) is substracted from the ng histamine of each sample. Then the ng histamine of each sample is divided by the mean of the three totals (cells lysed with perchloric acid) to obtain percent release. Control samples contain antigen but no test compound. Blank (or spontaneous release) samples contain neither antigen nor test compound. The mean of the blanks (three replicates) is subtracted from the percent release for controls and test compounds.

Structure (SMILES)	pIC50
Cc1cc(C)cc(Nc2nccc(-c3ccccn3)n2)c1 [N-(3,5-Dimethylphenyl)-4-(2-pyridinyl)-2-pyrimidinamine, sulfate]	6.22
Cc1cc(C)cc(Nc2nccc(-c3cccnc3)n2)c1 [N-(3,5-Dimethylphenyl)-4-(3-pyridinyl)-2-pyrimidinamine, sulfate]	5.52

Same assay, conditions: Homo sapiens, concentration causing 50% inhibition of histamine release, by linear regression; active if IC50 ≦ 48 µM; read-out: IC50

Structure (SMILES)	pIC50
Fc1cccc(F)c1Nc1nccc(-c2ccncc2)n1 [N-(2,6-Difluorophenyl)-4-(4-pyridinyl)-2-pyrimidinamine]	5.54
COc1ccc(C)cc1Nc1nccc(-c2ccncc2)n1 [N-(2-Methoxy-5-methylphenyl)-4-(4-pyridinyl)-2-pyrimidinamine]	5.16
Cc1cc(C)cc(Nc2nccc(-c3ccco3)n2)c1 [N-(3,5-Dimethylphenyl)-4-(2-furanyl)-2-pyrimidinamine]	6.15
Cc1cc(C)cc(Nc2ncc(C)c(-c3ccco3)n2)c1 [N-(3,5-Dimethylphenyl)-4-(2-furanyl)-5-methyl-2-pyrimidinamine]	> 4.62
Cc1cc(C)cc(Nc2nccc(-c3cccs3)n2)c1 [N-(3,5-Dimethylphenyl)-4-(2-thienyl)-2-pyrimidinamine]	5.37
CCc1cccc(Nc2nccc(-c3ccco3)n2)c1 [N-(3-Ethylphenyl)-4-(2-furanyl)-2-pyrimidinamine]	5.01
CCc1cccc(Nc2nccc(-c3ccccn3)n2)c1 [N-(3-Ethylphenyl)-4-(2-pyridinyl)-2-pyrimidinamine]	5.85
CCc1cccc(Nc2nccc(-c3cccs3)n2)c1 [N-(3-Ethylphenyl)-4-(2-thienyl)-2-pyrimidinamine]	4.32

Next, values leading:

pIC50	Structure (SMILES)
> 4.32	Cc1ccc(C)c(Nc2nccc(-c3ccccn3)n2)c1 [N-(2,5-Dimethylphenyl)-4-(2-pyridinyl)-2-pyrimidinamine]
4.33	Cc1ccc(C)c(Nc2nccc(-c3ccncc3)n2)c1 [N-(2,5-Dimethylphenyl)-4-(4-pyridinyl)-2-pyrimidinamine]
4.66	Fc1cccc(F)c1Nc1nccc(-c2cccnc2)n1 [N-(2,6-Difluorophenyl)-4-(3-pyridinyl)-2-pyrimidinamine]
5.01	COc1ccccc1Nc1nccc(-c2cccnc2)n1 [N-(2-Methoxyphenyl)-4-(3-pyridinyl)-2-pyrimidinamine]
5.41	Cc1ccccc1Nc1nccc(-c2ccncc2)n1 [N-(2-Methylphenyl)-4-(4-pyridinyl)-2-pyrimidinamine]
5.23	Cc1ccc(Nc2nccc(-c3ccccn3)n2)cc1C [N-(3,4-Dimethylphenyl)-4-(2-pyridinyl)-2-pyrimidinamine]
5.36	Cc1cc(C)cc(Nc2nccc(-c3ccncc3)n2)c1 [N-(3,5-Dimethylphenyl)-4-(4-pyridinyl)-2-pyrimidinamine]
5.03	Cc1ccc(Nc2nccc(-c3cccnc3)n2)cc1Cl [N-(3-Chloro-4-methylphenyl)-4-(3-pyridinyl)-2-pyrimidinamine]
5.89	Clc1cccc(Nc2nccc(-c3ccccn3)n2)c1 [N-(3-Chlorophenyl)-4-(2-pyridinyl)-2-pyrimidinamine]
5.82	Clc1cccc(Nc2nccc(-c3cccnc3)n2)c1 [N-(3-Chlorophenyl)-4-(3-pyridinyl)-2-pyrimidinamine]
5.51	Clc1cccc(Nc2nccc(-c3ccncc3)n2)c1 [N-(3-Chlorophenyl)-4-(4-pyridinyl)-2-pyrimidinamine]

Same assay, conditions: concentration causing 50% inhibition of histamine release, by linear regression; active if IC50 ≦ 48 µM; phosphate; read-out: IC50

Structure (SMILES)	pIC50
Cc1cc(C)cc(Nc2nccc(-c3ccccn3)n2)c1 [N-(3,5-Dimethylphenyl)-4-(2-pyridinyl)-2-pyrimidinamine, phosphate]	6.52
Cc1cc(C)cc(Nc2nccc(-c3cccnc3)n2)c1 [N-(3,5-Dimethylphenyl)-4-(3-pyridinyl)-2-pyrimidinamine, phosphate]	5.52

Same assay, conditions: concentration causing 50% inhibition of histamine release, by linear regression; active if IC50 ≦ 48 µM; read-out: IC50

Structure (SMILES)	pIC50
Cc1cc(C)cc(Nc2nccc(-c3ccccn3)n2)c1 [N-(3,5-Dimethylphenyl)-4-(2-pyridinyl)-2-pyrimidinamine]	6.00
Cc1cc(C)cc(Nc2nccc(-c3cccnc3)n2)c1 [N-(3,5-Dimethylphenyl)-4-(3-pyridinyl)-2-pyrimidinamine]	6.10
